Data set [1] relates to MA-104 and PAM cells. In words: Effects of blebbistatin on cells (cytopathic effects, CPE). Format: cell-based.
The next data set relates to NMM-II ATPase. As to conditions: vertebrate cells; Straight et al. Science 2003; cited from earlier work.
The subject of data set [2] is MA-104 and PAM cells. The data set can be described thus: Effects of blebbistatin on cells (cytopathic effects, CPE). Format: cell-based. As to conditions: Table 4, Marc-145 and PAM cells. The method, then: Marc-145 and PAM cells (10^5 cells/ml) are cultured on DMEM medium (containing 100 U/ml penicillin, 50 μg/ml streptomycin sulphate, 50 μg/ml gentamycin and 10% calf serum) in an incubator under 37[…] and 5% CO2 to form monolayer. Dissolve (±)-blebbistatin, (S)-(−)-blebbistatin and (R)-(+)-blebbistatin (purchased from Tocris Cookson, Inc. [US]) in DMSO, then perform multiple-proportion dilution with PBS, add a monolayer culture plate and continuously culture it to observe cytopathic effects (CPE). Under a conventional microscope, CPE is observed as rough cell surface, strong refractivity, and finally cell shedding. […] Therefore, (+)-blebbistatin can be used as a PRRSV-receptor blocker.

Another data set deals with PRRSV. The data set can be described thus: PRRSV-receptor blocking test (CPE caused by PRRSV in Marc-145 and PAM cells). It is filed as cell-based. More on the design: key to Inhibition levels of CPE: “−” means no CPE; “+” means CPE in 25% cells; “++” means CPE in 50% cells; “+++” means CPE in above 75% cells. As to conditions: for Inhibition levels of CPE: PRRSV 10^3TCID50/ml, Marc-145 and PAM cells. The method, then:
Marc-145 and PAM cells (10^5 cells/ml) are cultured on DMEM medium (containing 100 U/ml penicillin, 50 μg/ml streptomycin sulphate, 50 μg/ml gentamycin and 10% calf serum) in an incubator under 37 □ and 5% CO2 to form monolayer. Dissolve the NMHC II-A protein, artificially synthesized polypeptides, serum antibodies and (+)-blebbistatin obtained by using the methods of Implementation Examples 1, 2 and 4 in the DMEM medium; after de-germing by filtration, mix with PRRSV strains under different fixation concentrations (10^3TCID50/ml) and incubate an hour, and then add the cells above; perform eight repetitions for each dilution; after adsorption at 37 °C for an hour, remove the mixture, add DMEM medium and culture continuously; and observe CPE daily. The CPE manifestations caused by PRRSV infection include rough cell surface, strong refractivity, and finally cell shedding. The results in Table 5 illustrate the CPE inhibition levels of the NMHC II-A protein, artificially synthesized polypeptides, serum antibodies and (+)-blebbistatin under the each-well concentration of μg, μg, μL and μM in turn. The judgment results of cell CPE are expressed as follows: “−” means no CPE, “+” means CPE in 25% cells, “++” means CPE in 50% cells, and “+++” means CPE in above 75% cells.

The next data set relates to NMM-II. As to conditions: Straight et al. Science 2003; cited from earlier work.
Data set [3] relates to MA-104 and PAM cells. The data set can be described thus: Indirect immunofluorescence assay (IFA), serum antibodies binding to cells. It is filed as cell-based. The following applies: serum of mice after third immunization with the named antigen. The method, then: Indirect immunofluorescence assay (IFA): After dilution, combine the mouse anti-NMHC II-A protein and anti-polypeptide antibodies after immunization three times with MA-104 and PAM monolayer cells for 0.5-2 hours, then bind the goat anti-mouse IgG testing antibody labeled with fluorescence to the cells.

Setting [4] is: dilution 1/40, MA-104 and PAM cells.
The mark [5] stands for this setting: dilution 1/80, MA-104 and PAM cells.
Where [6] appears, read: dilution 1/160, MA-104 and PAM cells.
[7] abbreviates: dilution 1/320, MA-104 and PAM cells.

With `Cc1ccc2c(c1)C(=O)C1(O)CCN(c3ccccc3)C1=N2` (racemic) [(±)-blebbistatin], the “blebbistatin causing CPE or not (Yes or No)” value was “Yes” in the data set on MA-104 and PAM cells [1] (1 μM); “Yes” with MA-104 and PAM cells [1] (2 μM); “Yes” with MA-104 and PAM cells [1] (5 μM); “Yes” in the data set with MA-104 and PAM cells [1] (10 μM); “Yes” with MA-104 and PAM cells [1] (20 μM); “Yes” with MA-104 and PAM cells [1] (50 μM). Also, the “blebbistatin causing CPE or not (Yes or No)” value in the data set on MA-104 and PAM cells [1] (100 μM) is recorded as “Yes”. In addition, the “inhibition of NMM-II ATPase activity” value in the data set on NMM-II ATPase is “selective inhibitor”. Also, the “effect on cell proliferation and CPE” value in the data set on MA-104 and PAM cells [2] was “can inhibit cell proliferation and cause CPE”.

Turning to `Cc1ccc2c(c1)C(=O)[C@@]1(O)CCN(c3ccccc3)C1=N2` [(+)-blebbistatin, (R)-(+)-blebbistatin, reference compound], the “blebbistatin causing CPE or not (Yes or No)” value in the data set on MA-104 and PAM cells [1] (1 μM) is recorded as “No”; in the data set on MA-104 and PAM cells [1] (2 μM) it was “No”; in the data set on MA-104 and PAM cells [1] (5 μM) it was “No”; with MA-104 and PAM cells [1] (10 μM) it was “No”; with MA-104 and PAM cells [1] (20 μM), “No”; with MA-104 and PAM cells [1] (50 μM), “No”. Also, the “blebbistatin causing CPE or not (Yes or No)” value with MA-104 and PAM cells [1] (100 μM) was “No”. In addition, the “Inhibition levels of CPE” value in the data set on PRRSV (1 μM per well) is reported as “+ (“+” means CPE in 25% cells)”; with PRRSV (2 μM per well), “−”; in the data set with PRRSV (5 μM per well) it was “−”; in the data set on PRRSV (10 μM per well), “−”; in the data set with PRRSV (20 μM per well), “−”; in the data set with PRRSV (50 μM per well) it was “−”. Besides, the “Inhibition levels of CPE” value in the data set with PRRSV (100 μM per well) is given as “−”. In the data set with PRRSV (at 2 μM-100 μM/well), the “inhibition of the cell CPE caused by PRRSV” value (“inhibition … by PRRSV” for short) was “fully inhibit”. For the same compound, the “blocking of PRRSV strains from infecting cells” value in the data set with PRRSV (classic American strains (VR-2332), Chinese isolates (Ch-1a), highly pathogenic strains (JXA-1)) was “block the classic American strains, Chinese isolates and highly pathogenic strains of PRRSV from infecting cells”. The “effect on cell proliferation and CPE” value in the data set with MA-104 and PAM cells [2] was “does not inhibit cell proliferation and does not cause CPE”. The “inhibition of NMM-II-dependent cellular division and proliferation” value with NMM-II is “does not inhibit”.

Take `Cc1ccc2c(c1)C(=O)[C@]1(O)CCN(c3ccccc3)C1=N2` [(S)-(−)-blebbistatin]: the “blebbistatin causing CPE or not (Yes or No)” value in the data set on MA-104 and PAM cells [1] (1 μM) is “Yes”; with MA-104 and PAM cells [1] (2 μM) it was “Yes”; in the data set with MA-104 and PAM cells [1] (5 μM), “Yes”; with MA-104 and PAM cells [1] (10 μM), “Yes”; in the data set on MA-104 and PAM cells [1] (20 μM), “Yes”; with MA-104 and PAM cells [1] (50 μM), “Yes”. In addition, in the data set on MA-104 and PAM cells [1] (100 μM), the “blebbistatin causing CPE or not (Yes or No)” value is given as “Yes”. In addition, the “effect on cell proliferation and CPE” value in the data set with MA-104 and PAM cells [2] is “can inhibit cell proliferation and cause CPE”.

On to “Polypeptide (Seq ID No: 2): NMHC II-A artificial polypeptide, amino-acid sequence Seq ID No: 2 (GAGDGSDEE)”, for which the “Inhibition levels of CPE” value in the data set on PRRSV (1 μg per well) is recorded as “++ (“++” means CPE in 50% cells)”; in the data set on PRRSV (2 μg per well), “−”; with PRRSV (5 μg per well), “−”; in the data set with PRRSV (10 μg per well), “−”; with PRRSV (20 μg per well) it was “−”; with PRRSV (50 μg per well), “−”. Moreover, the “Inhibition levels of CPE” value in the data set with PRRSV (100 μg per well) was “−”. Also, the “inhibition … by PRRSV” value with PRRSV (at 2 μg-100 μg/well) was “fully inhibit”. For the same compound, the “Cell-bound serum (with or without fluorescence)” value in the data set on MA-104 and PAM cells [3] (setting [4]) is listed as “Yes”; with MA-104 and PAM cells [3] (setting [5]) it was “Yes”; in the data set on MA-104 and PAM cells [3] (setting [6]) it was “Yes”; with MA-104 and PAM cells [3] (setting [7]) it was “Yes”.

With “Polypeptide (Seq ID No: 3): NMHC II-A artificial polypeptide, amino-acid sequence Seq ID No: 3 (GAGDGSDEEVDGKA)”, the “Inhibition levels of CPE” value in the data set on PRRSV (1 μg per well) is recorded as “++ (“++” means CPE in 50% cells)”; in the data set on PRRSV (2 μg per well) it was “−”; in the data set on PRRSV (5 μg per well), “−”; in the data set with PRRSV (10 μg per well), “−”; in the data set with PRRSV (20 μg per well), “−”; with PRRSV (50 μg per well) it was “−”. Further, the “Inhibition levels of CPE” value in the data set on PRRSV (100 μg per well) is listed as “−”. In addition, the “inhibition … by PRRSV” value in the data set with PRRSV (at 2 μg-100 μg/well) is given as “fully inhibit”. Moreover, the “Cell-bound serum (with or without fluorescence)” value in the data set with MA-104 and PAM cells [3] (setting [4]) is on record as “Yes”; in the data set with MA-104 and PAM cells [3] (setting [5]), “Yes”; in the data set on MA-104 and PAM cells [3] (setting [6]), “Yes”; with MA-104 and PAM cells [3] (setting [7]), “Yes”.

For the compound “Polypeptide (Seq ID No: 4): NMHC II-A artificial polypeptide, amino-acid sequence Seq ID No: 4 (KADGAEAKPAE)”, the “Inhibition levels of CPE” value in the data set on PRRSV (1 μg per well) is listed as “++ (“++” means CPE in 50% cells)”; with PRRSV (2 μg per well), “−”; in the data set with PRRSV (5 μg per well) it was “−”; in the data set on PRRSV (10 μg per well) it was “−”; in the data set with PRRSV (20 μg per well), “−”; with PRRSV (50 μg per well), “−”. Moreover, the “Inhibition levels of CPE” value in the data set with PRRSV (100 μg per well) is recorded as “−”. The “inhibition … by PRRSV” value in the data set with PRRSV (at 2 μg-100 μg/well) is “fully inhibit”. Also, the “Cell-bound serum (with or without fluorescence)” value with MA-104 and PAM cells [3] (setting [4]) is listed as “Yes”; in the data set on MA-104 and PAM cells [3] (setting [5]), “Yes”; with MA-104 and PAM cells [3] (setting [6]), “Yes”; with MA-104 and PAM cells [3] (setting [7]), “Yes”.

These data come from patent US20120107932A1, “PRRS-VIRUS RECEPTOR AND ITS INHIBITOR” (priority 2009, published 2012).
